Results reported in PMC8533333, “Melatonin Analogues Potently Inhibit MAO-B and Protect PC12 Cells against Oxidative Stress” (Antioxidants, 2021).

Key:
[1] = target: T1, Human recombinant MAO-B (hMAO-B) (Homo sapiens, UniProt P27338); experiment: MAO-B enzyme assay (Amplex Red, resorufin fluorescence); format: biochemical; details: for inhibition at 10 µM: single dose 10 µM; for Selectivity Index (SI): IC50 (MAO-A)/IC50 (MAO-B); for IC50: five doses 10-0.001 µM, triplicate
T1 construct: purchased Sigma Aldrich; host or cells: insect cells
T1 sequence (P27338 1-520): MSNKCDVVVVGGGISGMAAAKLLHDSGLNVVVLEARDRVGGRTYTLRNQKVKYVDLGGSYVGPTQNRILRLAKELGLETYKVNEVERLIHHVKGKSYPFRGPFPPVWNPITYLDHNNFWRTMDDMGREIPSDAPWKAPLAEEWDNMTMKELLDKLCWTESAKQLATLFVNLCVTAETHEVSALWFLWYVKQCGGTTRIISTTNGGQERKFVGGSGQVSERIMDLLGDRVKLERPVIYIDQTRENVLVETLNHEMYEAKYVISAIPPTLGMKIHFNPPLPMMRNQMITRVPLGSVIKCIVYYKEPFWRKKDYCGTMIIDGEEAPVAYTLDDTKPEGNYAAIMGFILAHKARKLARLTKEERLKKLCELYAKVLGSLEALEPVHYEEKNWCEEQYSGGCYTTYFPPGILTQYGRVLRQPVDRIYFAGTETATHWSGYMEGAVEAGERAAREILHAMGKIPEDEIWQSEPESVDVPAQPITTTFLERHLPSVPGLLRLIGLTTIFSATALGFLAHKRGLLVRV
Method: (§1) Biological evaluation of the synthesized melatonin derivatives over both MAO-A and MAO-B was performed as reported previously. A detailed description of the protocol is in the Supplementary Materials.
First, the synthesized melatonin analogues (3a–x) were biologically evaluated over an MAO-B recombinant enzyme. The experiment was performed using Amplex® Red reagent technology. This technology offers quantitative enzyme activity sensitive detection, a wider dynamic range, and fluorescence emission outside the range of compound autofluorescence (if any). The Amplex® Red reagent is a colorless substrate that reacts with H2O2 in a 1:1 stoichiometry to produce a highly fluorescent resorufin; therefore, the induced inhibitory effects of the melatonin analogues over MAO-B were examined via spectrophotometry where the fluorescence rate of resorufin dye formation was measured.
Accordingly, compounds 3n, 3r, and 3u–w were further tested to determine their IC50 values over MAO-B in triplicate from the dose–response inhibition curves using Sigma-Plot software 13.0.
(§2) 6. Materials and methods of monoamine oxidase (MAO) enzyme assay
The inhibitory activity of MAO-A, B enzyme of the compounds was evaluated based on previously described method. The MAO activity was measured in relative fluorescence units (RFU) evoked by peroxidase-catalyzed oxidation of Amplex Red® to resorufin, in which H2O2 generated by MAO reaction was used as the […]. Human recombinant MAO-A (hMAO-A) and MAO-B (hMAO-B) enzyme expressed in insect cells were obtained from Sigma Aldrich. The 2 μL of test compound in DMSO (final concentration: 1 nM – 10 μM) was treated with 98 μL of hMAO enzyme solution in 50 mM sodium phosphate buffer (pH 7.4, final protein amounts: ~1.25 μg protein/well for MAO-A and ~2.5 μg protein/well for MAO -B) on 96-well black plate and incubated for 15 min at 37 °C. Then 100 μL of reaction working solution which is mixed solution of 400 μM Amplex Red® (Cayman, final concentration: 200 μM), 2 U/mL horseradish peroxidase ( Sigma-Aldrich, final concentration: 1 U/mL) and 2 mM substrate ( p-tyramine for MAO -A, benzylamine for MAO -B, Sigma-Aldrich, final concentration: 1 mM) in 50 mM sodium phosphate buffer (pH 7.4) were added and incubated for 20 min at 37 °C in the dark. The fluorescent intensity was quantified using a microplate reader (SpectraMax®i3, Molecular Device) with an excitation at 545 nm and an emission at 590 nm. The 50% inhibitory concentrations (IC50) of compounds were determined as the mean ± S.E.M. in triplicate from the dose-response inhibition curves using SigmaPlot® 13.0. […]

[2] = system: MAO-B; set-up: method as in PMID 32752896; details: cited from earlier work
[3] = target: T2, Human recombinant MAO-A (hMAO-A) (Homo sapiens, UniProt P21397); experiment: MAO-A enzyme assay (Amplex Red), selectivity; format: biochemical
T2 construct: purchased Sigma Aldrich; host or cells: insect cells
T2 sequence (P21397 1-527): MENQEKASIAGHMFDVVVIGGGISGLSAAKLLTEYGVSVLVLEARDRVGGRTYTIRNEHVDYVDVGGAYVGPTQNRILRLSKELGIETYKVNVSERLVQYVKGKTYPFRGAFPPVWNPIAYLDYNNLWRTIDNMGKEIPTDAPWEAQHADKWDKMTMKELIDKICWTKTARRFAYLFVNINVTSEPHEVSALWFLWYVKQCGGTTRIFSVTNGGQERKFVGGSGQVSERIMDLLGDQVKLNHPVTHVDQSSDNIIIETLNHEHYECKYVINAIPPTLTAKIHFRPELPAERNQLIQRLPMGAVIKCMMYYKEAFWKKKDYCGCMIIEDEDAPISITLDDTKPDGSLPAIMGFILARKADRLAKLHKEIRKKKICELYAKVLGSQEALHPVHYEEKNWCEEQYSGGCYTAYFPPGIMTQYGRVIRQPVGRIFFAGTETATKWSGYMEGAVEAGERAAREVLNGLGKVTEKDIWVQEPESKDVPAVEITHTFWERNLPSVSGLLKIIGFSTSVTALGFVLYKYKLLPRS
Method: as §1, §2
The inhibitory activity of MAO-A, B enzyme of the compounds was evaluated based on previously described method. The MAO activity was measured in relative fluorescence units (RFU) evoked by peroxidase-catalyzed oxidation of Amplex Red® to resorufin, in which H2O2 generated by MAO reaction was used as the […]. Human recombinant MAO-A (hMAO-A) and MAO-B (hMAO-B) enzyme expressed in insect cells were obtained from Sigma Aldrich. The 2 μL of test compound in DMSO (final concentration: 1 nM – 10 μM) was treated with 98 μL of hMAO enzyme solution in 50 mM sodium phosphate buffer (pH 7.4, final protein amounts: ~1.25 μg protein/well for MAO-A and ~2.5 μg protein/well for MAO -B) on 96-well black plate and incubated for 15 min at 37 °C. Then 100 μL of reaction working solution which is mixed solution of 400 μM Amplex Red® (Cayman, final concentration: 200 μM), 2 U/mL horseradish peroxidase ( Sigma-Aldrich, final concentration: 1 U/mL) and 2 mM substrate ( p-tyramine for MAO -A, benzylamine for MAO -B, Sigma-Aldrich, final concentration: 1 mM) in 50 mM sodium phosphate buffer (pH 7.4) were added and incubated for 20 min at 37 °C in the dark. The fluorescent intensity was quantified using a microplate reader (SpectraMax®i3, Molecular Device) with an excitation at 545 nm and an emission at 590 nm. The 50% inhibitory concentrations (IC50) of compounds were determined as the mean ± S.E.M. in triplicate from the dose-response inhibition curves using SigmaPlot® 13.0.
monoamine oxidase inhibitors. Bioorganic & medicinal chemistry 2015, 23, 6486-6496,

SMILES	melting point	inhibition at 10 µM [1]	further results
O=C(Nc1ccc2[nH]ccc2c1)c1ccc(Cl)cc1Cl [3d, 2,4-Dichloro-N-(1H-indol-5-yl)benzamide]	161 to 162 °C	22.9 ± 0.7%	
N#Cc1cccc(C(=O)Nc2ccc3[nH]ccc3c2)c1 [3m, 3-Cyano-N-(1H-indol-5-yl)benzamide]	188 to 189 °C	8.33 ± 0.59%	
O=C(Nc1ccc2[nH]ccc2c1)c1ccccc1Br [3b, 2-Bromo-N-(1H-indol-5-yl)benzamide]	231 to 233 °C	0.27 ± 0.81%	
C#CCN[C@@H]1CCc2ccccc21 [rasagiline, reference compound]			Selectivity Index (SI) [1]: > 50
O=C(Nc1ccc2[nH]ccc2c1)c1c(F)cccc1F [3h, 2,6-Difluoro-N-(1H-indol-5-yl)benzamide]	236 to 237 °C	-0.02 ± 0.26%	
O=C(Nc1ccc2[nH]ccc2c1)c1ccc(Cl)cc1 [3p, 4-Chloro-N-(1H-indol-5-yl)benzamide]		57.98 ± 0.07%	
O=C(Nc1ccc2c(ccn2C(=O)c2cccc(F)c2)c1)c1cnccn1 [N-(1-(3-fluorobenzoyl)-1H-indol-5-yl)pyrazine-2-carboxamide]			IC50 [2]: 0.78 µM; Ki ([2]; competitive): 0.0945 µM
O=C(Nc1ccc2[nH]ccc2c1)c1ccc(C(F)(F)F)cc1 [3v, N-(1H-indol-5-yl)-4-(trifluoromethyl)benzamide]	206 to 207 °C	91.22 ± 0.11%	IC50 [3]: > 100 µM; Selectivity Index (SI) [1]: >151; IC50 [1]: 0.66 µM
O=C(Nc1ccc2[nH]ccc2c1)c1cc([N+](=O)[O-])cc([N+](=O)[O-])c1 [3e, N-(1H-indol-5-yl)-3,5-dinitrobenzamide]		2.75 ± 0.2%	
O=C(Nc1ccc2[nH]ccc2c1)c1cc(Cl)cc(Cl)c1 [3w, 3,5-Dichloro-N-(1H-indol-5-yl)benzamide]	199 to 201 °C	72.63 ± 0.32%	IC50 [3]: > 100 µM; Selectivity Index (SI) [1]: >41; IC50 [1]: 2.41 µM
O=C(Nc1ccc2[nH]ccc2c1)c1ccccc1Cl [3o, 2-Chloro-N-(1H-indol-5-yl)benzamide]		2.39 ± 0.31%	

The next lines start with results.

melting point	inhibition at 10 µM [1]	SMILES	further results
195 to 196 °C	63.23 ± 0.45%	O=C(Nc1ccc2[nH]ccc2c1)c1ccc(OC(F)(F)F)cc1 [3t, N-(1H-indol-5-yl)-4-(trifluoromethoxy)benzamide]	
	58.3 ± 1.02%	O=C(Nc1ccc2[nH]ccc2c1)c1ccc(F)cc1 [3j, 4-Fluoro-N-(1H-indol-5-yl)benzamide]	
153 to 154 °C	1.49 ± 0.26%	O=C(Nc1ccc2[nH]ccc2c1)c1ccc(F)cc1C(F)(F)F [3l, 4-Fluoro-N-(1H-indol-5-yl)-2-(trifluoromethyl)benzamide]	
	14.9 ± 0.8%	O=C(Nc1ccc2[nH]ccc2c1)c1ccccc1 [3a, N-(1H-indol-5-yl)benzamide]	
221 to 223 °C	0.89 ± 0.31%	O=C(Nc1ccc2[nH]ccc2c1)c1c(Cl)cccc1Cl [3x, 2,6-Dichloro-N-(1H-indol-5-yl)benzamide]	
130 to 132 °C	68.34 ± 0.25%	O=C(Nc1ccc2[nH]ccc2c1)c1cccc(OC(F)(F)F)c1 [3s, N-(1H-indol-5-yl)-3-(trifluoromethoxy)benzamide]	
214 to 215 °C	54.25 ± 0.37%	O=C(Nc1ccc2[nH]ccc2c1)c1cccc([N+](=O)[O-])c1 [3f, N-(1H-indol-5-yl)-3-nitrobenzamide]	
166 to 168 °C	35.3 ± 0.76%	O=C(Nc1ccc2[nH]ccc2c1)c1cccc(F)c1 [3i, 3-Fluoro-N-(1H-indol-5-yl)benzamide]	
262 to 264 °C	61 ± 0.69%	O=C(Nc1ccc2[nH]ccc2c1)c1ccc([N+](=O)[O-])cc1 [3g, N-(1H-indol-5-yl)-4-nitrobenzamide]	
189 to 190 °C	50.01 ± 0.04%	CC(C)(C)c1ccc(C(=O)Nc2ccc3[nH]ccc3c2)cc1 [3q, 4-(Tert-butyl)-N-(1H-indol-5-yl)benzamide]	
209 to 210 °C	37.1 ± 0.7%	O=C(Nc1ccc2[nH]ccc2c1)c1ccc(Br)cc1 [3c, 4-Bromo-N-(1H-indol-5-yl)benzamide]	
148 to 150 °C	85.12 ± 0.22%	O=C(Nc1ccc2[nH]ccc2c1)c1cccc(C(F)(F)F)c1 [3u, N-(1H-indol-5-yl)-3-(trifluoromethyl)benzamide]	IC50 [3]: > 100 µM; Selectivity Index (SI) [1]: >83; IC50 [1]: 1.2 µM
179 to 181 °C	37.86 ± 0.33%	O=C(Nc1ccc2[nH]ccc2c1)c1ccccc1F [3k, 2-Fluoro-N-(1H-indol-5-yl)benzamide]	
